Results as given in USRE48097E1, “Cephem compounds, their production and use” (priority 2015, dated 2020).
In brackets after ≈: the same amount, converted by molar mass.

Experiments:
S. aureus 3132 = test: MIC against S. aureus 3132; assay type: cell-based; conditions: Table 2, S. aureus 3132, MSSA
Source text: (§1) Without limitation, the present cephem compounds alone, or in combination with one or more β-lactamase inhibitors, may provide improved antibacterial efficacy, particularly in antibiotic-resistant bacterial strains. It is believed that the present compounds may be structurally different from known compounds and, as a result, may be more basic in nature. It is an advantage that the present compounds may extend the spectrum of effective bacterial compounds, particularly against previously-resistant bacteria (e.g. ESKAPE organisms), and/or gram negative bacteria, without significant side effects. In a preferred embodiment, the present cephem compound may comprise reference compound ceftazidime, which may be used alone, or in combination with one or more β-lactamase inhibitors, such as NXL-104. As shown, the foregoing composition was tested for minimum inhibitory concentration (MIC, μg/mL) against bacteria listed in Tables 2-3.

S. aureus 3136 = test: MIC against S. aureus 3136; assay type: cell-based; conditions: Table 2, S. aureus 3136, MSSA
Source text: as §1

S. aureus 3147 = test: MIC against S. aureus 3147; assay type: cell-based; conditions: Table 2, S. aureus 3147, MSSA
Source text: as §1

S. pneumoniae ATCC 6301 = test: MIC against S. pneumoniae ATCC 6301; assay type: cell-based; conditions: Table 2, S. pneumoniae ATCC 6301, Pen S
Source text: as §1

S. pneumoniae 2389 = test: MIC against S. pneumoniae 2389; assay type: cell-based; conditions: Table 2, S. pneumoniae 2389, Pen R
Source text: as §1

S. pneumoniae 2407 = test: MIC against S. pneumoniae 2407; assay type: cell-based; conditions: Table 2, S. pneumoniae 2407, Pen S
Source text: as §1

E. cloacae 2704 = test: MIC against E. cloacae 2704; assay type: cell-based; conditions: Table 2, E. cloacae 2704, P99
Source text: as §1

E. cloacae 551 = test: MIC against E. cloacae 551; assay type: cell-based; conditions: Table 2, E. cloacae 551, Caz R, IMP S
Source text: as §1

E. cloacae 552 = test: MIC against E. cloacae 552; assay type: cell-based; conditions: Table 2, E. cloacae 552, Caz S, IMP S
Source text: as §1

E. cloacae 566 = test: MIC against E. cloacae 566; assay type: cell-based; conditions: Table 2, E. cloacae 566, Caz R, IMP S
Source text: as §1

E. cloacae596 = test: MIC against E. cloacae596; assay type: cell-based, E. cloacae; conditions: Table 2, E. cloacae596, Caz R, IMP S
Source text: as §1

C. freundii 15 = test: MIC against C. freundii 15; assay type: cell-based; conditions: Table 2, C. freundii 15, Caz R, IMP S
Source text: as §1

K. pneumoniae 4105 = test: MIC against K. pneumoniae 4105; assay type: cell-based; conditions: K. pneumoniae 4105, KPC-3, TEM-1, SHV-11
Method: (§2) As shown, the foregoing composition was tested for minimum inhibitory concentration (MIC, μg/mL) against bacteria listed in Tables 2-3.

K. pneumoniae 4108 = test: MIC against K. pneumoniae 4108; assay type: cell-based; conditions: K. pneumoniae 4108, KPC-3, TEM-166, SHV-12, SHV-141
Method: as §2

M. morganii 2409 = test: MIC against M. morganii 2409; assay type: cell-based; conditions: Table 2, M. morganii 2409, High level cephase, β-Lactamase producing
Source text: as §1

E. coli 2671 = test: MIC against E. coli 2671; assay type: cell-based; conditions: Table 2, E. coli 2671, VIM-19
Source text: as §1

E. coli 4098 = test: MIC against E. coli 4098; assay type: cell-based; conditions: Table 2, E. coli 4098, CTX-M-15, TEM-1
Source text: as §1

P. aeruginosa 2573 = test: MIC against P. aeruginosa 2573; assay type: cell-based; conditions: Table 2, P. aeruginosa 2573, OXA-10 (Class D)
Source text: as §1

E. cloacae 2706 = test: MIC against E. cloacae 2706; assay type: cell-based; conditions: Table 3, E. cloacae 2706, VIM-1, KPC-3
Method: as §2

E. cloacae 2710 = test: MIC against E. cloacae 2710; assay type: cell-based; conditions: Table 3, E. cloacae 2710, KPC-3, VIM-1
Method: as §2

E. coli 2666 = test: MIC against E. coli 2666; assay type: cell-based; conditions: Table 3, E. coli 2666, KPC-2
Method: as §2

K. pneumoniae 2712 = test: MIC against K. pneumoniae 2712; assay type: cell-based; conditions: Table 3, K. pneumoniae 2712, KPC-3, VIM-1
Method: as §2

K. pneumoniae 4088 = test: MIC against K. pneumoniae 4088; assay type: cell-based; conditions: Table 3, K. pneumoniae 4088, KPC-3
Method: as §2

[1] = Table 2, in combination with NXL-104
[2] = Table 3, in combination with NXL-104

With `CC(C)(O/N=C(\C(=O)N[C@@H]1C(=O)N2C(C(=O)[O-])=C(C[n+]3ccccc3)CS[C@H]12)c1csc(N)n1)C(=O)O` [CAZ, ceftazidime, reference compound] as the molecule, how does the MIC (S. aureus 3132; alone) read?
The MIC was 8.00 µg/mL.

What about the MIC (S. aureus 3132; in combination with NXL-104) of the same molecule?
Its MIC is 8.00 µg/mL.

And the MIC (S. aureus 3136; alone)?
The MIC was 8.00 µg/mL.

What about the MIC (S. aureus 3136; in combination with NXL-104) of the same molecule?
The MIC was 8.00 µg/mL.

And the MIC (S. aureus 3147; alone)?
Its MIC is 8.00 µg/mL.

And the MIC (S. aureus 3147; in combination with NXL-104)?
Its MIC is 8.00 µg/mL.

And the MIC (S. pneumoniae ATCC 6301; alone)?
The MIC was 0.12 µg/mL.

And the MIC (S. pneumoniae ATCC 6301; in combination with NXL-104)?
The MIC was 0.12 µg/mL.

And the MIC (S. pneumoniae 2389; alone)?
The MIC was 16.00 µg/mL.

What about the MIC (S. pneumoniae 2389; in combination with NXL-104) of the same molecule?
The MIC was 16.00 µg/mL.

What about the MIC (S. pneumoniae 2407; alone) of the same molecule?
Its MIC is 4.00 µg/mL.

And the MIC (S. pneumoniae 2407; in combination with NXL-104)?
Its MIC is 32.00 µg/mL.

And the MIC (E. cloacae 2704; alone)?
The MIC was 16.00 µg/mL.

What about the MIC (E. cloacae 2704; in combination with NXL-104) of the same molecule?
The MIC was 4.00 µg/mL.

And the MIC (E. cloacae 551; alone)?
The MIC was 16.00 µg/mL.

And the MIC (E. cloacae 551; in combination with NXL-104)?
Its MIC is 4.00 µg/mL.

What about the MIC (E. cloacae 552; alone) of the same molecule?
Its MIC is 0.50 µg/mL.

What about the MIC (E. cloacae 552; in combination with NXL-104) of the same molecule?
The MIC was 0.25 µg/mL.

What about the MIC (E. cloacae 566; alone) of the same molecule?
Its MIC is greater than 32 µg/mL.

And the MIC (E. cloacae 566; in combination with NXL-104)?
The MIC was 2.00 µg/mL.

And the MIC (E. cloacae596; alone)?
The MIC was 4.00 µg/mL.

And the MIC (E. cloacae596; in combination with NXL-104)?
Its MIC is 1.00 µg/mL.

And the MIC (C. freundii 15; alone)?
The MIC was 8.00 µg/mL.

What about the MIC (C. freundii 15; in combination with NXL-104) of the same molecule?
The MIC was 2.00 µg/mL.

And the MIC (K. pneumoniae 4105; Table 2, alone)?
The MIC was 32.00 µg/mL (≈ 58.5 µM).

And the MIC (K. pneumoniae 4105; [1])?
The MIC was 4.00 µg/mL.

And the MIC (K. pneumoniae 4105; Table 3, alone)?
The MIC was greater than 32 µg/mL.

What about the MIC (K. pneumoniae 4105; [2]) of the same molecule?
Its MIC is 4 µg/mL.

And the MIC (K. pneumoniae 4108; Table 2, alone)?
The MIC was 16.00 µg/mL (≈ 29.3 µM).

And the MIC (K. pneumoniae 4108; [1])?
The MIC was 4.00 µg/mL.

What about the MIC (K. pneumoniae 4108; Table 3, alone) of the same molecule?
The MIC was greater than 32 µg/mL.

What about the MIC (K. pneumoniae 4108; [2]) of the same molecule?
Its MIC is 4 µg/mL.

And the MIC (M. morganii 2409; alone)?
The MIC was 16.00 µg/mL.

And the MIC (M. morganii 2409; in combination with NXL-104)?
The MIC was 4.00 µg/mL.

What about the MIC (E. coli 2671; alone) of the same molecule?
The MIC was 32.00 µg/mL.

What about the MIC (E. coli 2671; in combination with NXL-104) of the same molecule?
The MIC was 32.00 µg/mL.

And the MIC (E. coli 4098; alone)?
The MIC was 2.00 µg/mL.

What about the MIC (E. coli 4098; in combination with NXL-104) of the same molecule?
Its MIC is 0.50 µg/mL.

And the MIC (P. aeruginosa 2573; alone)?
The MIC was 8.00 µg/mL.

What about the MIC (P. aeruginosa 2573; in combination with NXL-104) of the same molecule?
The MIC was 8.00 µg/mL.

And the MIC (E. cloacae 2706; alone)?
The MIC was greater than 32 µg/mL.

What about the MIC (E. cloacae 2706; in combination with NXL-104) of the same molecule?
The MIC was 32 µg/mL.

And the MIC (E. cloacae 2710; alone)?
Its MIC is greater than 32 µg/mL.

And the MIC (E. cloacae 2710; in combination with NXL-104)?
The MIC was greater than 32 µg/mL.

What about the MIC (E. coli 2666; alone) of the same molecule?
The MIC was greater than 32 µg/mL.

What about the MIC (E. coli 2666; in combination with NXL-104) of the same molecule?
Its MIC is 4 µg/mL.

What about the MIC (K. pneumoniae 2712; alone) of the same molecule?
Its MIC is greater than 32 µg/mL.

What about the MIC (K. pneumoniae 2712; in combination with NXL-104) of the same molecule?
Its MIC is 16 µg/mL.

What about the MIC (K. pneumoniae 4088; alone) of the same molecule?
The MIC was greater than 32 µg/mL.

And the MIC (K. pneumoniae 4088; in combination with NXL-104)?
Its MIC is 8 µg/mL.
